Columns and labels:
[1] = target: T1, Human recombinant monoamine oxidase MAO-B (Homo sapiens, UniProt P27338); experiment: MAO-B fluorescence-based kynuramine assay; type: biochemical
T1 construct: purchased Sigma Aldrich
T1 sequence (P27338 1-520): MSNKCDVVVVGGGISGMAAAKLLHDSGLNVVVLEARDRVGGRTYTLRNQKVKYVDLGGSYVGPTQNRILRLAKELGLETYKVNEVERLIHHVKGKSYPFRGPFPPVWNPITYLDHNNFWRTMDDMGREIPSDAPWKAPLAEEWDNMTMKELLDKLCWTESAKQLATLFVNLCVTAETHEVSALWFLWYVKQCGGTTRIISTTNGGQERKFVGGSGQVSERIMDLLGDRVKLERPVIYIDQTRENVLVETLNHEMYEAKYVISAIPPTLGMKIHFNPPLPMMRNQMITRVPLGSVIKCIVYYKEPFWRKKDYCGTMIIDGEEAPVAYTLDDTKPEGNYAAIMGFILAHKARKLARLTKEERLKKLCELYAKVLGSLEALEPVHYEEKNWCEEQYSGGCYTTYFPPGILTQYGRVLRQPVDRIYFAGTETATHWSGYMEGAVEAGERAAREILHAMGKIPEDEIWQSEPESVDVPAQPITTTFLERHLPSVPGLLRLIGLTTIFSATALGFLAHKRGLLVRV
Description: MAOs catalyze the oxidative deamination of primary, secondary and tertiary amines. In order to monitor MAO enzymatic activities and/or their inhibition rate by inhibitor(s) of interest, a fluorescence-based (inhibitor)-screening assay was set up. 3-(2-Aminophenyl)-3-oxopropanamine (kynuramine dihydrobromide, Sigma Aldrich), a non fluorescent compound was chosen as a substrate. Kynuramine is a non-specific substrate for both MAO-A and MAO-B activities. While undergoing oxidative deamination by MAO activities, kynuramine is converted into 4-hydroxyquinoline (4-HQ), a resulting fluorescent product.
The monoamine oxidase activity was estimated by measuring the conversion of kynuramine into 4-hydroxyquinoline. Assays were conducted in 96-well black plates with clear bottom (Corning) in a final volume of 100 μL. […]
After leaving the enzyme(s) interacting with the inhibitor, KM of kynuramine was added to each reaction for MAO-B and MAO-A assay respectively, and the reaction was left for 1 hour at 37° C. in the dark. […] The conversion of kynuramine to 4-hydroxyquinoline, was monitored by fluorescence (excitation at 320 nm, emission at 360 nm) using a microplate reader (Infinite 200, Tecan). Arbitrary units were used to measure levels of fluorescence produced in the absence and/or in the presence of inhibitor.
The IC50 values of each inhibitor were calculated with GraphPad Prism Software.

[2] = system: S100A8; experiment: Microarray gene expression, brain of Hsd:ICR (CD1) mice, MTD study (Example 6); type: in vivo, mouse; settings: brain day 5, male CD1 mice pool
Description: (§1) Total RNA was extracted from samples using the RNeasy extraction kit (Qiagen). The quality and concentration of the RNA was analyzed using the Agilent 2100 bioanalyzer and NanoDrop™ ND-1000 (Thermo Scientific). Samples with RNA integrity number (RIN)<6.0 were discarded. Total RNA (0.5 μg) amplification and labelling with Cy3 or Cy5 was carried out using the Eberwein mRNA amplification procedure (Van Gelder et al, Proc Natl Acad Sci USA 1990, 87:1663-1667) employing the MessageAmp™ aRNA amplification kit from Ambion (Applied Biosystems) following the manufacturer's instructions with minor modifications. As hybridization controls, plant mRNAs were transcribed from a plasmid containing the Zea mays Xet (xyloglucan endo-transglycosylase) cDNA and from a plasmid containing the Zea mays Zmmyb42 cDNA, independently prepared Cy3 and Cy5 labelled aRNA from these two RNAs using the Eberwein mRNA amplification procedure (as disclosed in Cerdà et al, Gen Comp Endocrinol 2008, 156:470-481).
(§2) The Cy3- and Cy5-labelled cRNAs and spikes were combined and hybridized to the microarray described in Example 2.6 for 17 h at 60° C. using Agilent's gaskets G2534-60002, G2534A hybridization chambers and DNA Hybridization Oven G2545A, according to the manufacturer's instructions. More specifically, equal amounts of Cy3 and Cy5 labeled Xet aRNA as well as equal amounts of Cy3 and Cy5 labeled Zmmyb42 aRNA were spiked into each mixture hybridized to the array. Arrays were washed and raw data were obtained using Agilent's DNA Microarray Scanner G2505B and Feature Extraction software (v10.1). The raw fluorescence intensity data were processed using applicant's proprietary software, and consists in the following operations:
(§3) Data normalization was carried out by an improved version of the nonlinear Q-splines normalization method (Workman et al., Genome Biol 2002, 3(9):research0048.1-0048.16). Normalization results were presented graphically as MA plots, as first described by Dudoit et al (Dudoit et al, Statistica Sinica, 2002, 12:111-139). Each point corresponds to a probe of the DNA array. M values (vertical axis) are the log-differential expression ratios. A values (horizontal axis) are the log-intensities of the spots. M and A are calculated from the Cy5 and Cy3 intensity values as of each spot. The DNA Array data is normalized using an improved version of non-linear Q-Splines normalization described by Workman et al., Genome Biol 2002, 3(9):research0048.1-0048.16. This process is useful to correct the deviation of the M values from the statistical assumption that most of the spots have M=0 in MA plots. […]. The data used to calculate the normalization fitting curve is the totality of the raw measurement dataset, excluding the signals for the probes for the spiked-in plant RNA controls and negative controls. In order to be able to normalize properly the data among all the experiments, the probe-set must include an important group of genes that should have no change (M=0) in the experiment. The normalization function is then applied to all the data, including controls.
(§4) Normalized and log-transformed data were used to calculate log 2 (sample/control) and Fold Change (FC) values. No background subtraction was applied to the signal intensity values during data processing, permitting robust selection of differentially expressed genes with low expression levels at the cost of potential sub-estimation of change when intensity levels are close to the array background level.
(§5) Male Hsd:ICR (CD1®) mice were maintained in air- and temperature-controlled cages with regular supply of water and food. A maximum of 3 mice were raised per cage. Three mice were assigned to each group. Before the first administration, each mouse was labeled and weighed. Test compounds were administered orally using 1 ml syringes using animal feeding needles proper for mice at 10 ml/kg as follows. […]

[3] = system: S100A9; experiment: as above; type: in vivo, mouse; settings: brain day 5, male CD1 mice pool
Description: as §1, §2, §3, §4, §5

[4] = 3 mg/kg oral x5 days vs vehicle
[5] = 10 mg/kg oral x5 days vs vehicle
[6] = 30 mg/kg oral x5 days vs vehicle
[7] = 100 mg/kg oral x5 days vs vehicle

| Compound | IC50 [1] [µM] | Hybridization signal sample_Cy5 S100A8 ([2]; 3 mg/kg oral x5 days) | log2 (sample/control) S100A8 [2, 4] | Hybridization signal sample_Cy5 S100A8 ([2]; 10 mg/kg oral x5 days) | log2 (sample/control) S100A8 [2, 5] | Hybridization signal sample_Cy5 S100A8 ([2]; 30 mg/kg oral x5 days) | log2 (sample/control) S100A8 [2, 6] | Hybridization signal sample_Cy5 S100A8 ([2]; 100 mg/kg oral x5 days) | log2 (sample/control) S100A8 [2, 7] | Hybridization signal sample_Cy5 S100A9 ([3]; 3 mg/kg oral x5 days) | log2 (sample/control) S100A9 [3, 4] | Hybridization signal sample_Cy5 S100A9 ([3]; 10 mg/kg oral x5 days) | log2 (sample/control) S100A9 [3, 5] | Hybridization signal sample_Cy5 S100A9 ([3]; 30 mg/kg oral x5 days) | log2 (sample/control) S100A9 [3, 6] | Hybridization signal sample_Cy5 S100A9 ([3]; 100 mg/kg oral x5 days) | log2 (sample/control) S100A9 [3, 7] |
| --- | --- | --- | --- | --- | --- | --- | --- | --- | --- | --- | --- | --- | --- | --- | --- | --- | --- |
| NC(=O)CN[C@H]1C[C@@H]1c1ccc(OCc2ccccc2)cc1 (racemic) [Compound 3, 2-(((trans)-2-(4-(benzyloxy)phenyl)cyclopropyl)amino)acetamide] | 0.07 | – | – | – | – | – | – | – | – | – | – | – | – | – | – | – | – |
| (+) 5-((((trans)-2-(4-(benzyloxy)phenyl)cyclopropyl)amino)methyl)-1,3,4-oxadiazol-2-amine [Compound 2] | – | 126.363 | −0.1015 | 69.9912 | −1.156 | 80.188 | −1.029 | 39.3591 | −1.921 | 291.855 | −0.2512 | 117.175 | −1.515 | 149.542 | −1.285 | 45.3442 | −2.876 |
| N[C@H]1CCN(CCN[C@H]2C[C@@H]2c2ccc(-c3cccc(C(F)(F)F)c3)cc2)C1 (racemic) [Compound 5, (S)-1-(2-(((trans)-2-(3′-(trifluoromethyl)-[1,1′-biphenyl]-4-yl)cyclopropyl)amino)ethyl)pyrrolidin-3-amine] | 5.1 | – | – | – | – | – | – | – | – | – | – | – | – | – | – | – | – |
| (−) 5-((((trans)-2-(4-(benzyloxy)phenyl)cyclopropyl)amino)methyl)-1,3,4-oxadiazol-2-amine [Compound 1] | – | 55.2994 | −1.452 | 39.6385 | −1.81 | 40.5977 | −1.859 | 40.4596 | −1.786 | 97.9225 | −1.935 | 46.2723 | −2.962 | 45.4319 | −2.9408 | 56.7063 | −2.792 |
